Measurements reported in ChEMBL document CHEMBL3867433, “Synthesis and antimicrobial activity of styryl/pyrrolyl/pyrazolyl sulfonylmethyl-1,3,4-oxadiazolyl amines and styryl/pyrrolyl/pyrazolyl sulfonylmethyl-1,3,4-thiadiazolyl amines” (2016).

Columns and labels:
Type in all cases: functional
[1] = Antifungal activity against Penicillium chrysogenum assessed as inhibition of spore germination at 50 ug/well after 48 hrs by agar well diffusion method
Pseudomonas aeruginosa [2] = experiment: Antibacterial activity against Pseudomonas aeruginosa at 12.5 ug/well after 24 hrs by agar well diffusion method; settings: read-out: DIZ
Klebsiella pneumoniae [3] = experiment: Antibacterial activity against Klebsiella pneumoniae at 25 ug/well after 24 hrs by agar well diffusion method; settings: read-out: DIZ
Bacillus subtilis [4] = experiment: Antibacterial activity against Bacillus subtilis at 25 ug/well after 24 hrs by agar well diffusion method; settings: read-out: DIZ
Staphylococcus aureus [5] = experiment: Antibacterial activity against Staphylococcus aureus at 100 ug/well after 24 hrs by agar well diffusion method; settings: read-out: DIZ
Aspergillus niger [6] = experiment: Antifungal activity against Aspergillus niger assessed as inhibition of spore germination at 50 ug/well after 48 hrs by agar well diffusion method; settings: read-out: DIZ
Pseudomonas aeruginosa [7] = experiment: Antibacterial activity against Pseudomonas aeruginosa at 100 ug/well after 24 hrs by agar well diffusion method; settings: read-out: DIZ
Klebsiella pneumoniae [8] = experiment: Antibacterial activity against Klebsiella pneumoniae at 100 ug/well after 24 hrs by agar well diffusion method; settings: read-out: DIZ
Bacillus subtilis [9] = experiment: Antibacterial activity against Bacillus subtilis at 100 ug/well after 24 hrs by agar well diffusion method; settings: read-out: DIZ
[10] = Antifungal activity against Penicillium chrysogenum assessed as inhibition of spore germination at 100 ug/well after 48 hrs by agar well diffusion method
Aspergillus niger [11] = experiment: Antifungal activity against Aspergillus niger assessed as inhibition of spore germination at 100 ug/well after 48 hrs by agar well diffusion method; settings: read-out: DIZ
Staphylococcus aureus [12] = experiment: Antibacterial activity against Staphylococcus aureus at 50 ug/well after 24 hrs by agar well diffusion method; settings: read-out: DIZ
Klebsiella pneumoniae [13] = experiment: Antibacterial activity against Klebsiella pneumoniae at 12.5 ug/well after 24 hrs by agar well diffusion method; settings: read-out: DIZ
[14] = Antifungal activity against Penicillium chrysogenum assessed as inhibition of spore germination at 25 ug/well after 48 hrs by agar well diffusion method
Bacillus subtilis [15] = experiment: Antibacterial activity against Bacillus subtilis at 50 ug/well after 24 hrs by agar well diffusion method; settings: read-out: DIZ
Aspergillus niger [16] = experiment: Antifungal activity against Aspergillus niger assessed as inhibition of spore germination at 25 ug/well after 48 hrs by agar well diffusion method; settings: read-out: DIZ
Pseudomonas aeruginosa [17] = experiment: Antibacterial activity against Pseudomonas aeruginosa at 25 ug/well after 24 hrs by agar well diffusion method; settings: read-out: DIZ
Klebsiella pneumoniae [18] = experiment: Antibacterial activity against Klebsiella pneumoniae at 50 ug/well after 24 hrs by agar well diffusion method; settings: read-out: DIZ
Bacillus subtilis [19] = experiment: Antibacterial activity against Bacillus subtilis at 12.5 ug/well after 24 hrs by agar well diffusion method; settings: read-out: DIZ
Pseudomonas aeruginosa [20] = experiment: Antibacterial activity against Pseudomonas aeruginosa at 50 ug/well after 24 hrs by agar well diffusion method; settings: read-out: DIZ
Aspergillus niger [21] = experiment: Antifungal activity against Aspergillus niger assessed as inhibition of spore germination at 12.5 ug/well after 48 hrs by agar well diffusion method; settings: read-out: DIZ
Staphylococcus aureus [22] = experiment: Antibacterial activity against Staphylococcus aureus at 12.5 ug/well after 24 hrs by agar well diffusion method; settings: read-out: DIZ
[23] = Antifungal activity against Penicillium chrysogenum assessed as inhibition of spore germination at 12.5 ug/well after 48 hrs by agar well diffusion method
Staphylococcus aureus [24] = experiment: Antibacterial activity against Staphylococcus aureus at 25 ug/well after 24 hrs by agar well diffusion method; settings: read-out: DIZ

Row | Compound | inhibition zone (IZ) [1] | zone of inhibition at 12.5 µg/disc (Pseudomonas aeruginosa [2]) | zone of inhibition at 25 µg/disc (Klebsiella pneumoniae [3]) | zone of inhibition at 25 µg/disc (Bacillus subtilis [4]) | zone of inhibition at 100 µg/disc (Staphylococcus aureus [5]) | zone of inhibition at 50 µg/disc (Aspergillus niger [6]) | zone of inhibition at 100 µg/disc (Pseudomonas aeruginosa [7]) | zone of inhibition at 100 µg/disc (Klebsiella pneumoniae [8]) | zone of inhibition at 100 µg/disc (Bacillus subtilis [9]) | inhibition zone (IZ) [10] | zone of inhibition at 100 µg/disc (Aspergillus niger [11]) | zone of inhibition at 50 µg/disc (Staphylococcus aureus [12]) | zone of inhibition at 12.5 µg/disc (Klebsiella pneumoniae [13]) | inhibition zone (IZ) [14] | zone of inhibition at 50 µg/disc (Bacillus subtilis [15]) | zone of inhibition at 25 µg/disc (Aspergillus niger [16]) | zone of inhibition at 25 µg/disc (Pseudomonas aeruginosa [17]) | zone of inhibition at 50 µg/disc (Klebsiella pneumoniae [18]) | zone of inhibition at 50 µg/disc (Pseudomonas aeruginosa [20]) | inhibition zone (IZ) [23] | also measured
1 | Nc1nnc(CS(=O)(=O)c2n[nH]cc2-c2ccccc2)o1 | 14 mm | 11 mm | 12 mm | 9 mm | 14 mm | 11 mm | 17 mm | 16 mm | 15 mm | 16 mm | 13 mm | 10 mm | 10 mm | 12 mm | 11 mm | 9 mm | 13 mm | 14 mm | 15 mm |  | zone of inhibition at 12.5 µg/disc (Bacillus subtilis [19]): 7 mm
2 | Cc1ccc(/C=C\S(=O)(=O)Cc2nnc(N)s2)cc1 | 29 mm | 21 mm | 25 mm | 26 mm | 23 mm | 26 mm | 27 mm | 29 mm | 29 mm | 31 mm | 28 mm | 21 mm | 23 mm | 27 mm | 27 mm | 24 mm | 23 mm | 27 mm | 25 mm | 25 mm | zone of inhibition at 12.5 µg/disc (Aspergillus niger [21]): 22 mm; zone of inhibition at 12.5 µg/disc (Staphylococcus aureus [22]): 19 mm; zone of inhibition at 25 µg/disc (Staphylococcus aureus [24]): 20 mm; zone of inhibition at 12.5 µg/disc (Bacillus subtilis [19]): 25 mm
3 | Cc1ccc(-c2c[nH]nc2S(=O)(=O)Cc2nnc(N)o2)cc1 | 11 mm | 9 mm |  | 7 mm | 12 mm | 10 mm | 14 mm | 14 mm | 11 mm | 14 mm | 10 mm |  |  |  | 9 mm | 8 mm | 10 mm | 12 mm | 12 mm |  | zone of inhibition at 12.5 µg/disc (Bacillus subtilis [19]): 6 mm
4 | Nc1nnc(CS(=O)(=O)C2=NNCC2c2ccccc2)s1 (stereo not given) |  |  |  |  |  | 7 mm |  |  |  | 12 mm | 9 mm |  |  |  |  |  |  |  |  |  | 
5 | Nc1nnc(CS(=O)(=O)c2n[nH]cc2-c2ccccc2)s1 | 34 mm | 22 mm | 28 mm | 26 mm | 24 mm | 27 mm | 27 mm | 32 mm | 29 mm | 36 mm | 29 mm | 22 mm | 26 mm | 32 mm | 27 mm | 25 mm | 23 mm | 30 mm | 25 mm | 30 mm | zone of inhibition at 12.5 µg/disc (Aspergillus niger [21]): 23 mm; zone of inhibition at 12.5 µg/disc (Staphylococcus aureus [22]): 20 mm; zone of inhibition at 25 µg/disc (Staphylococcus aureus [24]): 21 mm; zone of inhibition at 12.5 µg/disc (Bacillus subtilis [19]): 25 mm
6 | Cc1ccc(-c2c[nH]cc2S(=O)(=O)Cc2nnc(N)o2)cc1 | 12 mm |  |  |  | 10 mm | 7 mm | 11 mm | 12 mm | 10 mm | 14 mm | 9 mm |  |  | 10 mm |  |  |  |  | 10 mm | 8 mm | 
7 | Nc1nnc(CS(=O)(=O)/C=C\c2ccccc2)s1 | 36 mm | 23 mm | 29 mm | 28 mm | 25 mm | 29 mm | 29 mm | 33 mm | 31 mm | 35 mm | 31 mm | 23 mm | 27 mm | 34 mm | 29 mm | 27 mm | 25 mm | 31 mm | 27 mm | 29 mm | zone of inhibition at 12.5 µg/disc (Aspergillus niger [21]): 25 mm; zone of inhibition at 12.5 µg/disc (Staphylococcus aureus [22]): 21 mm; zone of inhibition at 25 µg/disc (Staphylococcus aureus [24]): 22 mm; zone of inhibition at 12.5 µg/disc (Bacillus subtilis [19]): 27 mm
8 | Cc1ccc(/C=C\S(=O)(=O)Cc2nnc(N)o2)cc1 | 14 mm | 12 mm | 13 mm | 9 mm | 14 mm | 11 mm | 18 mm | 17 mm | 14 mm | 16 mm | 13 mm | 12 mm | 11 mm | 12 mm | 11 mm | 10 mm | 14 mm | 15 mm | 16 mm | 10 mm | zone of inhibition at 12.5 µg/disc (Aspergillus niger [21]): 8 mm; zone of inhibition at 12.5 µg/disc (Bacillus subtilis [19]): 8 mm
9 | Nc1nnc(CS(=O)(=O)c2c[nH]cc2-c2ccc(Cl)cc2)o1 | 16 mm | 9 mm | 10 mm |  | 12 mm | 9 mm | 15 mm | 14 mm | 13 mm | 18 mm | 14 mm | 9 mm | 8 mm | 14 mm | 11 mm | 10 mm | 11 mm | 12 mm | 13 mm | 12 mm | zone of inhibition at 12.5 µg/disc (Staphylococcus aureus [22]): 7 mm; zone of inhibition at 25 µg/disc (Staphylococcus aureus [24]): 8 mm
10 | Nc1nnc(CS(=O)(=O)C2=NNCC2c2ccc(Cl)cc2)s1 (stereo not given) | 10 mm |  |  |  |  | 10 mm |  |  |  | 13 mm | 11 mm |  |  |  |  |  |  |  |  |  | 
11 | Nc1nnc(CS(=O)(=O)c2n[nH]cc2-c2ccc(Cl)cc2)o1 | 15 mm | 12 mm | 13 mm | 9 mm | 15 mm | 11 mm | 18 mm | 17 mm | 13 mm | 17 mm | 13 mm | 12 mm | 11 mm | 13 mm | 12 mm | 9 mm | 14 mm | 15 mm | 16 mm | 12 mm | zone of inhibition at 12.5 µg/disc (Staphylococcus aureus [22]): 8 mm; zone of inhibition at 25 µg/disc (Staphylococcus aureus [24]): 10 mm; zone of inhibition at 12.5 µg/disc (Bacillus subtilis [19]): 8 mm
12 | Nc1nnc(CS(=O)(=O)c2c[nH]cc2-c2ccccc2)o1 | 14 mm | 8 mm |  |  | 11 mm | 10 mm | 14 mm | 13 mm | 12 mm | 16 mm | 12 mm |  |  | 12 mm |  | 8 mm | 10 mm | 11 mm | 12 mm | 11 mm | 
13 | Cc1ccc(C2CNN=C2S(=O)(=O)Cc2nnc(N)s2)cc1 (stereo not given) |  |  |  |  |  | 4 mm |  |  |  | 11 mm | 8 mm |  |  |  |  |  |  |  |  |  | 
